Data: US10239832B2, “N-(1-hydroxy-3-(pyrrolidinyl)propan-2-yl)pyrrolidine-3-carboxamide derivatives as glucosylceramide synthase inhibitors” (BIOMARIN PHARMACEUTICAL INC., priority 2013, dated 2019)

Molecular target: T1, GCS (Canis lupus familiaris, UniProt A0A8I3MXG6)
T1 construct: endogenous in cells; host or cells: MDCK (Madin-Darby canine kidney) cells, whole-cell lysate
T1 sequence (A0A8I3MXG6 1-394): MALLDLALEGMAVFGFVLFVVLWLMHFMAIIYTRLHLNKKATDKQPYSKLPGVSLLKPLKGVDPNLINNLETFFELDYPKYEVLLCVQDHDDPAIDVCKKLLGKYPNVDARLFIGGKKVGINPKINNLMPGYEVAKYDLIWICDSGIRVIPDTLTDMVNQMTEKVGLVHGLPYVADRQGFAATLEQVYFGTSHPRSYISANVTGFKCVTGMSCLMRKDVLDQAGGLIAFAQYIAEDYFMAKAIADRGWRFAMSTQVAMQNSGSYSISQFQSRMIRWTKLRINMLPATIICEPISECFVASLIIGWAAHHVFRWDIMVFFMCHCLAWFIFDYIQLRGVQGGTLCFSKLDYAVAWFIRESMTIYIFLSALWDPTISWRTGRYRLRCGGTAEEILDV
Assay: GCS enzymatic assay (MDCK cell lysate, NBD-ceramide to glucosylceramide, LC/MS)
Format: biochemical, canine
Conditions: Table 2; class symbols A, B, C; the table does not say which of the assays; read-out: Data Range (IC50 values)
Summary of the method: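 IC50 or percent inhibition came from LC/MS/MS (ESI+, MRM) of NBD-ceramide and glucosylceramide, with tolbutamide as internal standard. The reaction used MDCK (canine) cell lysate as the enzyme source and was ended with acetonitrile. Mock wells received 0.1% DMSO.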

SMILES | IC50 [nM]
O=C(N[C@H](CN1CCC1)[C@H](O)c1ccc(OC2CC2)cc1)[C@@H]1CCN(c2ccc3cc(F)ccc3c2)C1 [Compound 159, (R)-N-((1R,2R)-3-(azetidin-1-yl)-1-(4-cyclopropoxyphenyl)-1-hydroxypropan-2-yl)-1-(6-fluoronaphthalen-2-yl)pyrrolidine-3-carboxamide] | 30 to 100
O=C(N[C@H](CN1CCCC1)[C@H](O)c1ccc(OC2CC2)c(F)c1)[C@@H]1CCN(c2ccc(Cl)cc2)C1 [Compound 65, (R)-1-(4-chlorophenyl)-N((1R,2R)-1-(4-cyclopropoxy-3-fluorophenyl)-1-hydroxy-3-(pyrrolidin-1-yl)propan-2-yl)pyrrolidine-3-carboxamide] | 1 to 30
O=C(N[C@H](CN1CCCC1)[C@H](O)c1ccc(OC2CC2)nc1)[C@@H]1CCN(c2ccc(Cl)cc2)C1 [Compound 13, (R)-1-(4-chlorophenyl)-N-((1R,2R)-1-(6-cyclopropoxypyridin-3-yl)-1-hydroxy-3-(pyrrolidin-1-yl)propan-2-yl)pyrrolidine-3-carboxamide] | 30 to 100
O=C(N[C@H](CN1CCCC1)[C@H](O)c1ccc2c(c1)OCCO2)C1CCN(c2ccc3cc(F)ccc3c2)C1 (stereo partly drawn) [Compound 14C, N-((1R,2R)-1-(2,3-dihydrobenzo[b][1,4]dioxin-6-yl)-1-hydroxy-3-(pyrrolidin-1-yl)propan-2-yl)-1-(6-fluoronaphthalen-2-yl)pyrrolidine-3-carboxamide] | 1 to 30

Results, then the compound that gave them:

IC50 [nM] | SMILES
30 to 100 | O=C(N[C@H](CN1CCC1)[C@H](O)c1cc(F)c2c(c1)OCCO2)[C@H]1CCN(c2ccc3cc(F)ccc3c2)C1 [Compound 47B, (S)-N-((1R,2R)-3-(azetidin-1-yl)-1-(8-fluoro-2,3-dihydrobenzo[b][1,4]dioxin-6-yl)-1-hydroxypropan-2-yl)-1-(6-fluoronaphthalen-2-yl)pyrrolidine-3-carboxamide]
1 to 30 | O=C(N[C@H](CN1CCCC1)[C@H](O)c1cc(F)c2c(c1)OCCO2)[C@@H]1CCN(c2cccc(Oc3ccc(F)cc3)n2)C1 [Compound 116, (R)-N-((1R,2R)-1-(8-fluoro-2,3-dihydrobenzo[b][1,4]dioxin-6-yl)-1-hydroxy-3-(pyrrolidin-1-yl)propan-2-yl)-1-(6-(4-fluorophenoxy)pyridin-2-yl)pyrrolidine-3-carboxamide]
100 to 1000 | O=C(N[C@H](CN1CCCC1)[C@H](O)c1cc(F)c2c(c1)OCCO2)[C@@]1(O)CCN(c2ccc(Cl)cc2)C1 [Compound 154C, (R)-1-(4-chlorophenyl)-N-((1R,2R)-1-(8-fluoro-2,3-dihydrobenzo[b][1,4]dioxin-6-yl)-1-hydroxy-3-(pyrrolidin-1-yl)propan-2-yl)-3-hydroxypyrrolidine-3-carboxamide]
1 to 30 | O=C(N[C@H](CN1CCCC1)[C@H](O)c1cc(F)c2c(c1)OCCO2)[C@@H]1CCN(c2ccc3cc(F)ccc3c2)C1 [Compound 52, (R)-N-((1R,2R)-1-(8-fluoro-2,3-dihydrobenzo[b][1,4]dioxin-6-yl)-1-hydroxy-3-(pyrrolidin-1-yl)propan-2-yl)-1-(6-fluoronaphthalen-2-yl)pyrrolidine-3-carboxamide]

Same assay, conditions: Table 2; class symbols D, E, F, NA (not active); the table does not say which of the assays

SMILES | Data Range (% inhibition)
O=C(N[C@H](CN1CCCC1)[C@H](O)c1ccc2c(c1)OCCO2)[C@H]1CCN(c2ccc(F)cc2)C1 [Compound 24C, (S)-N-((1R,2R)-1-(2,3-dihydrobenzo[b][1,4]dioxin-6-yl)-1-hydroxy-3-(pyrrolidin-1-yl)propan-2-yl)-1-(4-fluorophenyl)pyrrolidine-3-carboxamide] | NA (not active—a negative value was generated for % inhibition)
O=C(N[C@H](CN1CCCC1)[C@H](O)c1ccc2c(c1)OCCO2)[C@@H]1CCN(C(=O)c2ccccc2)C1 [Compound 121, (R)-1-benzoyl-N-((1R,2R)-1-(2,3-dihydrobenzo[b][1,4]dioxin-6-yl)-1-hydroxy-3-(pyrrolidin-1-yl)propan-2-yl)pyrrolidine-3-carboxamide] | NA (not active—a negative value was generated for % inhibition)
O=C(N[C@H](CN1CCCC1)[C@H](O)c1ccc2c(c1)OCCO2)[C@H]1CCN(CCc2ccc(Cl)cc2)C1 [Compound 21F, (S)-1-(4-chlorophenethyl)-N-((1R,2R)-1-(2,3-dihydrobenzo[b][1,4]dioxin-6-yl)-1-hydroxy-3-(pyrrolidin-1-yl)propan-2-yl)pyrrolidine-3-carboxamide] | F (1-49% (or less than 50%))
O=C(N[C@H](CN1CCCC1)[C@H](O)c1ccc2c(c1)OCCO2)[C@H]1CCN(c2nccs2)C1 [Compound 17D, (S)-N-((1R,2R)-1-(2,3-dihydrobenzo[b][1,4]dioxin-6-yl)-1-hydroxy-3-(pyrrolidin-1-yl)propan-2-yl)-1-(thiazol-2-yl)pyrrolidine-3-carboxamide] | NA (not active—a negative value was generated for % inhibition)
O=C(N[C@H](CN1CCCC1)[C@H](O)c1ccc(OCC(F)(F)F)nc1)[C@H]1CCN(c2ccc(Cl)cc2)C1 [Compound 33A, (S)-1-(4-chlorophenyl)-N-((1R,2R)-1-hydroxy-3-(pyrrolidin-1-yl)-1-(6-(2,2,2-trifluoroethoxy)pyridin-3-yl)propan-2-yl)pyrrolidine-3-carboxamide] | NA (not active—a negative value was generated for % inhibition)
O=C(N[C@H](CN1CCCC1)[C@H](O)c1ccc2c(c1)OCCO2)[C@@H]1CCN(c2ccc3c(c2)CCCC3)C1 [Compound 80, (R)-N-((1R,2R)-1-(2,3-dihydrobenzo[b][1,4]dioxin-6-yl)-1-hydroxy-3-(pyrrolidin-1-yl)propan-2-yl)-1-(5,6,7,8-tetrahydronaphthalen-2-yl)pyrrolidine-3-carboxamide] | E (50-74% (or less than 75%))
O=C(N[C@H](CN1CCC1)[C@H](O)c1ccc(OC2CC2)c(Cl)c1)[C@@H]1CCN(c2ccc3cc(F)ccc3c2)C1 [Compound 95, (R)-N-((1R,2R)-3-(azetidin-1-yl)-1-(3-chloro-4-cyclopropoxyphenyl)-1-hydroxypropan-2-yl)-1-(6-fluoronaphthalen-2-yl)pyrrolidine-3-carboxamide] | D (75-100%)
O=C(N[C@H](CN1CCCC1)[C@H](O)c1cc(F)c2c(c1)OCCO2)[C@H]1CCN(c2ccccn2)C1 [Compound 48A, (S)-N-((1R,2R)-1-(8-fluoro-2,3-dihydrobenzo[b][1,4]dioxin-6-yl)-1-hydroxy-3-(pyrrolidin-1-yl)propan-2-yl)-1-(pyridin-2-yl)pyrrolidine-3-carboxamide] | F (1-49% (or less than 50%))
O=C(N[C@H](CN1CCCC1)[C@H](O)c1cc(F)c2c(c1)OCCO2)[C@H]1CCN(c2ccc(Cl)cc2)C1 [Compound 2B, (S)-1-(4-chlorophenyl)-N-((1R,2R)-1-(8-fluoro-2,3-dihydrobenzo[b][1,4]dioxin-6-yl)-1-hydroxy-3-(pyrrolidin-1-yl)propan-2-yl)pyrrolidine-3-carboxamide] | F (1-49% (or less than 50%))
O=C(N[C@H](CN1CCCC1)[C@H](O)c1ccc(OCCN2CCC2)c(Cl)c1)[C@H]1CCN(c2ccc(Cl)cc2)C1 [Compound 60A, (S)-N-((1R,2R)-1-(4-(2-(azetidin-1-yl)ethoxy)-3-chlorophenyl)-1-hydroxy-3-(pyrrolidin-1-yl)propan-2-yl)-1-(4-chlorophenyl)pyrrolidine-3-carboxamide] | NA (not active—a negative value was generated for % inhibition)
